Values after ≈ are worked out from the molar mass of the structure shown.
Assays:
[1] = test system: clinical isolates carrying APH(3′)-I; assay: MIC broth microdilution, APH(3′)-I; type: cell-based; details: IMM Univ. Zurich
Text: (§1) Minimal inhibitory concentrations (MIC) have been determined by broth microdilution assays (CLSI. Methods for Dilution Antimicrobial Susceptibility Tests for Bacteria That Grow Aerobically; Approved Standard—Tenth Edition. CLSI document M07-A10. Wayne, Pa.: Clinical and Laboratory Standards Institute; 2015.).
(§2) Minimal inhibitory concentrations (MICs, […]) against clinical isolates from Institute of Medical Microbiology, Univ. Zurich, and the IC50 values for bacterial, human mitochondrial and human cytosolic ribosomes are indicated.

[2] = test system: AG042 MRSA AAC(6′)-I ANT(4′)-I APH(2′); assay: Antibacterial activity, clinical isolate AG042; type: cell-based; parameters: unit not given here
Outline: (§3)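 Reported as MIC; method was a CLSI-conforming microdilution in broth.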

[3] = test system: clinical isolates carrying APH(3′)-VI; assay: MIC broth microdilution, APH(3′)-VI; type: cell-based; details: IMM Univ. Zurich
Text: as §1, §2

AG032 P. aer. APH(3′)-II = assay: Antibacterial activity, clinical isolate AG032; type: cell-based; parameters: unit not given here
Outline: as §3

[4] = test system: AG212, Escherichia coli ATCC25922; assay: MIC reference strain AG212; type: cell-based; details: Escherichia coli; reference strain ATCC25922; read-out: MIC AG212 E. coli
Outline: (§4)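 CLSI-conform broth microdilution testing gives the minimal concentration preventing visible growth of these reference strains.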

[5] = test system: human cytosolic ribosomes; assay: in-vitro translation assay, human cytosolic ribosomes; type: biochemical
Outline: (§5)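 Each ribosome preparation (bacterial, human chimeric as the mitochondrial model, rabbit reticulocyte as the cytosolic model) drives in-vitro translation with the test compound present. Inhibition of translation gives the IC50.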

[6] = test system: Engineered E. coli pH425 rmtB; assay: Activity against G1405-methylated 16S-rRNA, E. coli pH425 rmtB; type: cell-based
Outline: (§6)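 Read-out is the minimal inhibitory concentration, obtained in broth microdilution run according to CLSI guidelines (M07-A10).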

AG163 E. coli APH(3′)-I = assay: Antibacterial activity, clinical isolate AG163; type: cell-based
Text: as §1
Table 4 and 5 show the antibacterial activity of the compounds of the invention against bacterial reference strains (table 4) and against representative clinical isolates (table 5).

[7] = test system: Engineered E. coli AG103 armA; assay: Activity against G1405-methylated 16S-rRNA, E. coli AG103 armA; type: cell-based
Text: as §1

[8] = test system: clinical isolates carrying AAC(3)-IV; assay: MIC broth microdilution, AAC(3)-IV; type: cell-based; details: clinical isolates, IMM Univ. Zurich; AAC(3)-IV; read-out: MIC AAC(3)-IV
Outline: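 MICs obtained by broth microdilution following CLSI M07-A10, tested against clinical isolates from the Institute of Medical Microbiology, Univ. Zurich; values in μg/ml.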

[9] = test system: AG039 MRSA AAC(6′)-I ANT(4′)-I; assay: Antibacterial activity, clinical isolate AG039; type: cell-based
Outline: as §3

[10] = test system: AG215, Klebsiella pneumonia; assay: MIC reference strain AG215; type: cell-based; details: Klebsiella pneumoniae, reference strain; read-out: MIC AG215 K. pneumonia
Outline: as §4

AG038 MRSA = assay: Antibacterial activity, clinical isolate AG038; type: cell-based; parameters: unit not given here
Outline: as §3

[11] = test system: human mitochondrial ribosomes; assay: in-vitro translation assay, human mitochondrial (human chimeric) ribosomes; type: biochemical
Outline: as §5

[12] = test system: AG033 P. aer. APH(3′)-II AAC(6′)-I; assay: Antibacterial activity, clinical isolate AG033; type: cell-based; parameters: unit not given here
Outline: as §3

[13] = test system: Engineered E. coli pH430 WT; assay: Activity, engineered E. coli pH430 WT; type: cell-based; details: wild type
Outline: as §6

bacterial ribosomes = assay: in-vitro translation assay, bacterial ribosomes; type: biochemical
Outline: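 Inhibitory potency was determined as IC50 in in-vitro translation systems based on bacterial ribosomes, human chimeric (mitochondrial-type) ribosomes or rabbit reticulocyte (cytosolic) ribosomes.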

AG003 E. coli AAC(3)-II = assay: Antibacterial activity, clinical isolate AG003; type: cell-based
Outline: as §3

[14] = test system: clinical isolates carrying APH(3′)-III; assay: MIC broth microdilution, APH(3′)-III; type: cell-based; details: IMM Univ. Zurich
Text: as §1, §2

AG055 E. coli WT = assay: Antibacterial activity, clinical isolate AG055; type: cell-based; parameters: unit not given here
Outline: as §3

AG031 P. aer. APH(3′)-II = assay: Antibacterial activity, clinical isolate AG031; type: cell-based; parameters: unit not given here
Outline: as §3

[15] = test system: Engineered E. coli pH426 rmtC; assay: Activity against G1405-methylated 16S-rRNA, E. coli pH426 rmtC; type: cell-based
Outline: as §6

[16] = test system: AG225, Acinetobacter baumannii pittii; assay: MIC reference strain AG225; type: cell-based; details: Acinetobacter baumannii, reference strain; read-out: MIC AG225 A. baumannii
Outline: as §4

[17] = test system: Engineered E. coli pH424 armA; assay: Activity against G1405-methylated 16S-rRNA, E. coli pH424 armA; type: cell-based
Outline: as §6

[18] = test system: AG290, Enterobacter cloacae; assay: MIC reference strain AG290; type: cell-based; details: Enterobacter cloacae; reference strain; read-out: MIC AG290 E. cloacae
Outline: as §4

AG001 E. coli WT = assay: Antibacterial activity, clinical isolate AG001; type: cell-based; parameters: unit not given here
Outline: as §3

[19] = test system: AG220, Pseudomonas aeruginosa ATCC27853; assay: MIC reference strain AG220; type: cell-based; details: Pseudomonas aeruginosa, ATCC27853, reference strain ATCC27853; read-out: MIC AG220 P. aeruginosa
Outline: as §4

[20] = test system: clinical isolates carrying APH(3′)-II; assay: MIC broth microdilution, APH(3′)-II; type: cell-based; details: clinical isolates, IMM Univ. Zurich; APH(3′)-II; read-out: MIC APH(3′)-II
Text: as §1, §2

AG173 E. coli AAC(3)-IV = assay: Antibacterial activity, clinical isolate AG173; type: cell-based
Outline: as §3

[21] = test system: Engineered E. coli pH427 rmtF; assay: Activity against G1405-methylated 16S-rRNA, E. coli pH427 rmtF; type: cell-based
Outline: as §6

[22] = test system: SZ380, Mycobacterium smegmatis; assay: MIC reference strain SZ380; type: cell-based; details: Mycolicibacterium smegmatis, reference strain; read-out: MIC SZ380 M. smegmatis
Outline: as §4

ATCC19977 M. abcessus = assay: MIC reference strain ATCC19977; type: cell-based; details: read-out: MIC ATCC19977 M. abcessus
Outline: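 Values are minimal inhibitory concentrations, obtained by serial dilution of compound in broth according to CLSI guidance for aerobes.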

With `CNC1C(OC2OC(CO)C(N)C(O)C2O)OC2CC(N)C(OC3C(N)CC(N)C(O)C3OC3OCC(O)C3O)OC2C1O` (stereo not drawn) [DC146, 5-O-β-D—(Erythrofuranosyl) apramycin] the MIC [1] was 4 µg/mL (≈ 6.23 µM), the “Antibacterial activity AG042 MRSA AAC(6′)-I ANT(4′)-I APH(2′)” value [2] was 16 and the MIC [3] was 8 µg/mL (≈ 12.5 µM). The “Antibacterial activity AG032 P. aer. APH(3′)-II” value (AG032 P. aer. APH(3′)-II) was 64, the MIC [4] was 16 µg/mL and the IC50 [5] was 321 µM. For the same molecule, the “Activity E. coli pH425 rmtB” value [6] was 4, the “Antibacterial activity AG163 E. coli APH(3′)-I” value (AG163 E. coli APH(3′)-I) was 8 and the “Activity E. coli AG103 armA” value [7] was 1. The MIC [8] was 32 µg/mL (≈ 49.9 µM), the “Antibacterial activity AG039 MRSA AAC(6′)-I ANT(4′)-I” value [9] was 16-32 and the MIC [10] was 4 µg/mL. The “Antibacterial activity AG038 MRSA” value (AG038 MRSA) was 16-32, the IC50 [11] was 215 µM and the “Antibacterial activity AG033 P. aer. APH(3′)-II AAC(6′)-I” value [12] was 64-128. The “Activity E. coli pH430 WT” value [13] was 8, the IC50 (bacterial ribosomes) was 0.09 µM and the “Antibacterial activity AG003 E. coli AAC(3)-II” value (AG003 E. coli AAC(3)-II) was 16. For the same molecule, the MIC [14] was 1 µg/mL (≈ 1.56 µM), the “Antibacterial activity AG055 E. coli WT” value (AG055 E. coli WT) was 16 and the “Antibacterial activity AG031 P. aer. APH(3′)-II” value (AG031 P. aer. APH(3′)-II) was 64. The “Activity E. coli pH426 rmtC” value [15] was 8, the MIC [16] was 8 µg/mL and the “Activity E. coli pH424 armA” value [17] was 4. For the same molecule, the MIC [18] was 4 µg/mL, the “Antibacterial activity AG001 E. coli WT” value (AG001 E. coli WT) was 16 and the MIC [19] was 32 µg/mL. The MIC [20] was 4 µg/mL (≈ 6.23 µM), the “Antibacterial activity AG173 E. coli AAC(3)-IV” value (AG173 E. coli AAC(3)-IV) was 128 and the “Activity E. coli pH427 rmtF” value [21] was 4.

For `CNC1C(OC2OC(CO)C(N)C(O)C2O)OC2CC(N)C(OC3C(N)CC(N)C(O)C3OC3OC(CO)C(OCCO)C3O)OC2C1O` [DC178, 5-O-β-[3′″-O-(2-Hydroxyethyl)-D-ribofuranosyl] apramycin], the MIC [1] was > 64 µg/mL, the “Antibacterial activity AG042 MRSA AAC(6′)-I ANT(4′)-I APH(2′)” value [2] was 32 and the MIC [3] was 16 µg/mL (≈ 22.4 µM). The MIC [22] was 2 µg/mL, the “Antibacterial activity AG032 P. aer. APH(3′)-II” value (AG032 P. aer. APH(3′)-II) was >32 and the MIC [4] was 8 µg/mL. For the same molecule, the IC50 [5] was > 500 µM, the “Activity E. coli pH425 rmtB” value [6] was 8 and the “Antibacterial activity AG163 E. coli APH(3′)-I” value (AG163 E. coli APH(3′)-I) was 8. The “Activity E. coli AG103 armA” value [7] was 2, the MIC [8] was > 32 µg/mL and the “Antibacterial activity AG039 MRSA AAC(6′)-I ANT(4′)-I” value [9] was 32. For the same molecule, the MIC [10] was 4 µg/mL, the “Antibacterial activity AG038 MRSA” value (AG038 MRSA) was 16-32 and the IC50 [11] was 647 µM. For the same molecule, the “Antibacterial activity AG033 P. aer. APH(3′)-II AAC(6′)-I” value [12] was >32, the “Activity E. coli pH430 WT” value [13] was 8 and the IC50 (bacterial ribosomes) was 0.22 µM. The “Antibacterial activity AG003 E. coli AAC(3)-II” value (AG003 E. coli AAC(3)-II) was 16, the MIC [14] was 2 µg/mL (≈ 2.79 µM) and the MIC (ATCC19977 M. abcessus) was 32 µg/mL (≈ 44.7 µM). For the same molecule, the “Antibacterial activity AG055 E. coli WT” value (AG055 E. coli WT) was 16, the “Antibacterial activity AG031 P. aer. APH(3′)-II” value (AG031 P. aer. APH(3′)-II) was >32 and the “Activity E. coli pH426 rmtC” value [15] was 8. The MIC [16] was 16 µg/mL, the “Activity E. coli pH424 armA” value [17] was 2 and the MIC [18] was 8 µg/mL. For the same molecule, the “Antibacterial activity AG001 E. coli WT” value (AG001 E. coli WT) was 32, the MIC [19] was > 64 µg/mL and the MIC [20] was 8 µg/mL (≈ 11.2 µM). The “Antibacterial activity AG173 E. coli AAC(3)-IV” value (AG173 E. coli AAC(3)-IV) was 32-64 and the “Activity E. coli pH427 rmtF” value [21] was 8.
